Assay [1] has as its target T1, NHE3 (Homo sapiens, UniProt P48764).
T1 construct: expressed in transfected cells
T1 sequence (P48764 26-834): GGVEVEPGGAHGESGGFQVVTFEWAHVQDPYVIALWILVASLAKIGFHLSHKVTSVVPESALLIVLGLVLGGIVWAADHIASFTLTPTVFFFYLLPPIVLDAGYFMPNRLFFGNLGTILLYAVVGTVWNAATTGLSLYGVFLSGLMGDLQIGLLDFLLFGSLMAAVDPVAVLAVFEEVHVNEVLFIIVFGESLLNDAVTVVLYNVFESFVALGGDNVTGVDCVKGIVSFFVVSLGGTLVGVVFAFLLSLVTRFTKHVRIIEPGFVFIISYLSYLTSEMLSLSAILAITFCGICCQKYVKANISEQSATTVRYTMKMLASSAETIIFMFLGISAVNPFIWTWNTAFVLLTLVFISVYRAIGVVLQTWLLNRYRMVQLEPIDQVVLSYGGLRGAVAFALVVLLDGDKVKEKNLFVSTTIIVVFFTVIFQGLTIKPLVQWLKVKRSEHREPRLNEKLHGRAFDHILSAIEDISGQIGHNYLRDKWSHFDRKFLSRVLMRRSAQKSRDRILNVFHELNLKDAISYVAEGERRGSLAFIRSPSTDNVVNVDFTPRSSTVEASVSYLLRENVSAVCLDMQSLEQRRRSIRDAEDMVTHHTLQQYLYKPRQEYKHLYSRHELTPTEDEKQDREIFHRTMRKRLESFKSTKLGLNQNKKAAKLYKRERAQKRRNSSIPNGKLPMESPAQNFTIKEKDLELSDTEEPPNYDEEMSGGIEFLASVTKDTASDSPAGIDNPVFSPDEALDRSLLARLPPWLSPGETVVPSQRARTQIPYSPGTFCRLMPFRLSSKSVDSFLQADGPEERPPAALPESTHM
T1 sequence (Q99653 2-195 partner limits assumed): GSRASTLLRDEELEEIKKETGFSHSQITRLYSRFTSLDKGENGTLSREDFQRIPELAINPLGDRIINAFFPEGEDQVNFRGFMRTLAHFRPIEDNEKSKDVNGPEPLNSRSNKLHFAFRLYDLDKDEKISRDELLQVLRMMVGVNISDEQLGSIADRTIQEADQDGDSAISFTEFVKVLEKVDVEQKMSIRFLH
As to the kind of experiment: Cell-based assay of NHE-3 activity (persistent inhibition), human. Particulars: human Persistence, 60 min incubation then washout. An outline of the steps: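 PS120 fibroblasts expressing human NHE3 with NHERF2 exposed to 0-30 μM compound for 60 min at RT, then washed out; cells acid-loaded by NH4Cl prepulse with BCECF-AM and Na+-free buffer. Na+-driven pH recovery started 10 min post-washout; initial rate of BCECF ratio change (FLIPR) taken as activity.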

Assay [2] concerns the target T1, NHE3. As to the kind of experiment: Cell-based assay of NHE-3 activity (pre-incubation inhibition), human. Conditions: human Preincubation; for pIC50: 0-30 μM test compound. In short, it runs like this: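 PS120 fibroblasts stably expressing human NHE3 and NHERF2, loaded 30 min at 37 °C with 5 μM BCECF-AM in NH4Cl buffer, then acidified 10 min at room temperature in Na+-free buffer with 0–30 μM compound. Initial rate of BCECF fluorescence ratio change (FLIPR) per minute taken as Na+/H+ activity.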

The structures appear in SMILES notation.

Consider nine compounds from patent US11242337B2, “Compounds useful for treating gastrointestinal tract disorders” (Ardelyx, Inc., priority 2017, dated 2022).

As for `Cc1cc(Cl)cc2c1C[C@H](N1CCC[C@@H](N(C)C)C1)[C@H]2Oc1ccc(S(=O)(=O)NCCOCCOCCNC(=O)NCCCCNC(=O)NCCOCCOCCNS(=O)(=O)c2ccc(O[C@H]3c4cc(Cl)cc(C)c4C[C@@H]3N3CCC[C@@H](N(C)C)C3)c(F)c2)cc1F` [Example 30, 3-[2-(2-[2-[(4-[[(1S,2S)-6-Chloro-2-[(3R)-3-(dimethylamino)piperidin-1-yl]-4-methyl-2,3-dihydro-1H-inden-1-yl]oxy]-3-fluorobenzene)sulfonamido]ethoxy]ethoxy)ethyl]-1-[4-([[2-(2-[2-[(4-[[(1S,2S)-6-chloro-2-[(3R)-3-(dimethylamino)piperidin-1-yl]-4-methyl-2,3-dihydro-1H-inden-1-yl]oxy]-3-fluorobenzene)sulfonamido]ethoxy]ethoxy)ethyl]carbamoyl]amino)butyl]urea; bis(trifluoroacetic acid)], on NHE3 [1], the “% inhibition” value is “C (>70%)” and the pIC50 entry is on record as “C (NHE3 pIC50 > 7)”. Also, on NHE3 [2], the “% inhibition” value was “C (>70%)” and the pIC50 entry is on record as “C (NHE3 pIC50 > 7)”.
Consider `CN(C)[C@H]1Cc2c(Cl)cc(Cl)cc2[C@@H]1Oc1ccc(S(=O)(=O)NCCOCCOCCNC(=O)NCCCCNC(=O)NCCOCCOCCNS(=O)(=O)c2ccc(O[C@H]3c4cc(Cl)cc(Cl)c4C[C@@H]3N(C)C)c(F)c2)cc1F` [Example 23, 3-[2-(2-[2-[(4-[[(1S,2S)-4,6-Dichloro-2-(dimethylamino)-2,3-dihydro-1H-inden-1-yl]oxy]-3-fluorobenzene)sulfonamido]ethoxy]ethoxy)ethyl]-1-[4-([[2-(2-[2-[(4-[[(1S,2S)-4,6-dichloro-2-(dimethylamino)-2,3-dihydro-1H-inden-1-yl]oxy]-3-fluorobenzene)sulfonamido]ethoxy]ethoxy)ethyl]carbamoyl]amino)butyl]urea; bis(trifluoroacetic acid)], for which, on NHE3 [1], the “% inhibition” value is given as “C (>70%)” and the pIC50 entry is given as “C (NHE3 pIC50 > 7)”. For the same compound, at NHE3 [2], the “% inhibition” value is “C (>70%)” and the pIC50 entry is on record as “C (NHE3 pIC50 > 7)”.
`O=C(NCCCCNC(=O)NCCOCCN1CC[C@H](NS(=O)(=O)c2ccc(O[C@H]3c4cc(Cl)cc(Cl)c4C[C@@H]3N3CCNCC3)c(F)c2)C1)NCCOCCN1CC[C@H](NS(=O)(=O)c2ccc(O[C@H]3c4cc(Cl)cc(Cl)c4C[C@@H]3N3CCNCC3)c(F)c2)C1` [Example 106, 4-([(1S,2S)-4,6-Dichloro-2-(piperazin-1-yl)-2,3-dihydro-1H-inden-1-yl]oxy)-N—[(S)-1-(20-[(S)-3-([4-([(1S,2S)-4,6-dichloro-2-(piperazin-1-yl)-2,3-dihydro-1H-inden-1-yl]oxy)-3-fluorophenyl]sulfonamido)pyrrolidin-1-yl]-7,14-dioxo-3,18-dioxa-6,8,13,15-tetraazaicosyl)pyrrolidin-3-yl]-3-fluorobenzenesulfonamide; tetra(trifluoroacetate)]: the “% inhibition” value at NHE3 [1] and at NHE3 [2] was “C (>70%)” in each case.
In the case of `N#Cc1cc(Cl)cc2c1C[C@H](N1CCNCC1)[C@H]2Oc1ccc(S(=O)(=O)N[C@H]2CCN(C(=O)CCCNC(=O)NCCCCNC(=O)NCCCC(=O)N3CC[C@H](NS(=O)(=O)c4ccc(O[C@H]5c6cc(Cl)cc(C#N)c6C[C@@H]5N5CCNCC5)cc4)C3)C2)cc1` [Example 143, 4-([(1S,2S)-6-Chloro-4-cyano-2-(piperazin-1-yl)-2,3-dihydro-1H-inden-1-yl]oxy)-N—[(S)-1-(18-[(S)-3-([4-([(1S,2S)-6-chloro-4-cyano-2-(piperazin-1-yl)-2,3-dihydro-1H-inden-1-yl]oxy)phenyl]sulfonamido)pyrrolidin-1-yl]-6,13,18-trioxo-5,7,12,14-tetraazaoctadecanoyl)pyrrolidin-3-yl]benzenesulfonamide], on NHE3 [1], the “% inhibition” value was “C (>70%)” and the pIC50 result was “C (NHE3 pIC50 > 7)”. For the same compound, at NHE3 [2], the “% inhibition” value is on record as “C (>70%)” and the pIC50 result is “C (NHE3 pIC50 > 7)”.
On to `N#Cc1cc(Cl)cc2c1C[C@H](N1CCNCC1)[C@H]2Oc1ccc(S(=O)(=O)NC2CCN(C(=O)CCCNC(=O)NCCCCNC(=O)NCCCC(=O)N3CCC(NS(=O)(=O)c4ccc(O[C@H]5c6cc(Cl)cc(C#N)c6C[C@@H]5N5CCNCC5)cc4)CC3)CC2)cc1` [Example 115], for which, at NHE3 [1], the “% inhibition” value was “C (>70%)” and the pIC50 result is “C (NHE3 pIC50 > 7)”. At NHE3 [2], the “% inhibition” value is recorded as “C (>70%)” and the pIC50 result is listed as “C (NHE3 pIC50 > 7)”.
Regarding `N#Cc1cc(Cl)cc2c1C[C@H](N1CCNCC1)[C@H]2Oc1ccc(S(=O)(=O)NC2CCN(CCOCCNC(=O)NCCCCNC(=O)NCCOCCN3CCC(NS(=O)(=O)c4ccc(O[C@H]5c6cc(Cl)cc(C#N)c6C[C@@H]5N5CCNCC5)cc4)CC3)CC2)cc1` [Example 123, 4-([(1S,2S)-6-Chloro-4-cyano-2-(piperazin-1-yl)-2,3-dihydro-1H-inden-1-yl]oxy)-N-[1-(20-[4-([4-([(1S,2S)-6-chloro-4-cyano-2-(piperazin-1-yl)-2,3-dihydro-1H-inden-1-yl]oxy)phenyl]sulfonamide]piperidin-1-yl)-7,14-dioxo-3,18-dioxa-6,8,13,15-tetraazaicosyl]piperidin-4-yl)benzenesulfonamide], on NHE3 [1], the “% inhibition” value was “C (>70%)” and the pIC50 result is “C (NHE3 pIC50 > 7)”. Also, at NHE3 [2], the “% inhibition” value is listed as “C (>70%)” and the pIC50 result is listed as “C (NHE3 pIC50 > 7)”.
As to `Cc1cc(S(=O)(=O)NCCOCCOCCNC(=O)NCCCCNC(=O)NCCOCCOCCNS(=O)(=O)c2ccc(O[C@H]3c4cc(Cl)cc(Cl)c4C[C@@H]3N3CCC[C@@H](N(C)C)C3)c(C)c2)ccc1O[C@H]1c2cc(Cl)cc(Cl)c2C[C@@H]1N1CCC[C@@H](N(C)C)C1` [Example 26, 3-[2-(2-[2-[(4-[[(1S,2S)-4,6-Dichloro-2-[(3R)-3-(dimethylamino)piperidin-1-yl]-2,3-dihydro-1H-inden-1-yl]oxy]-3-methylbenzene)sulfonamido]ethoxy]ethoxy)ethyl]-1-[4-([[2-(2-[2-[4-[[(1S,2S)-4,6-dichloro-2-[(3R)-3-(dimethylamino)piperidin-1-yl]-2,3-dihydro-1H-inden-1-yl]oxy]-3-methylbenzenesulfonamido]ethoxy]ethoxy)ethyl]carbamoyl]amino)butyl]urea; bis(trifluoroacetic acid)], the “% inhibition” value on NHE3 [1] and at NHE3 [2] was “C (>70%)” in each case.
On to `C[C@@H]1CN([C@H]2Cc3c(C#N)cc(Cl)cc3[C@@H]2Oc2ccc(S(=O)(=O)N[C@H]3CCN(CCOCCNC(=O)NCCCCNC(=O)NCCOCCN4CC[C@H](NS(=O)(=O)c5ccc(O[C@H]6c7cc(Cl)cc(C#N)c7C[C@@H]6N6CCN[C@H](C)C6)cc5)C4)C3)cc2)CCN1` [Example 132, 4-([(1S,2S)-6-Chloro-4-cyano-2-[(R)-3-methylpiperazin-1-yl]-2,3-dihydro-1H-inden-1-yl]oxy)-N—[(S)-1-(20-[(S)-3-([4-([(1S,2S)-6-chloro-4-cyano-2-[(R)-3-methylpiperazin-1-yl]-2,3-dihydro-1H-inden-1-yl]oxy)phenyl]sulfonamido)pyrrolidin-1-yl]-7,14-diaxo-3,18-dioxa-5,8,13,15-tetraazaicosyl)pyrrolidin-3-yl]benzenesulfonamide; bis(trifluoroacetic acid)], for which, at NHE3 [1], the “% inhibition” value is “C (>70%)” and the pIC50 entry was “C (NHE3 pIC50 > 7)”. Moreover, at NHE3 [2], the “% inhibition” value is reported as “C (>70%)” and the pIC50 result is reported as “C (NHE3 pIC50 > 7)”.
For `Cc1cc(S(=O)(=O)NCCOCCOCCNC(=O)NCCCCNC(=O)NCCOCCOCCNS(=O)(=O)c2ccc(O[C@H]3c4cc(Cl)cc(C#N)c4C[C@@H]3N3CCNCC3)c(C)c2)ccc1O[C@H]1c2cc(Cl)cc(C#N)c2C[C@@H]1N1CCNCC1` [Example 42, 3-[2-(2-[2-[(4-[[(1S,2S)-6-Chloro-4-cyano-2-(piperazin-1-yl)-2,3-dihydro-1H-inden-1-yl]oxy]-3-methylbenzene)sulfonamido]ethoxy]ethoxy)ethyl]-1-[4-([[2-(2-[2-[(4-[[(1S,2S)-6-chloro-4-cyano-2-(piperazin-1-yl)-2,3-dihydro-1H-inden-1-yl]oxy]-3-methylbenzene)sulfonamido]ethoxy]ethoxy)ethyl]carbamoyl]amino)butyl]urea; bis(trifluoroacetic acid)], at NHE3 [1], the “% inhibition” value is “C (>70%)” and the pIC50 entry is recorded as “C (NHE3 pIC50 > 7)”. Further, at NHE3 [2], the “% inhibition” value is recorded as “C (>70%)” and the pIC50 result is “C (NHE3 pIC50 > 7)”.
